Measurements from US6653300B2, “Pyrazole compounds useful as protein kinase inhibitors” (Vertex Pharmaceuticals Incorporated, priority 2000, dated 2003).

Assays:
CDK-2/Cyclin A = CDK-2/Cyclin A (Homo sapiens, UniProt P24941); assay: CDK-2 inhibition assay (coupled enzyme assay); assay type: biochemical; details: 25 nM CDK-2/Cyclin A, 30° C.
Protocol: Compounds were screened in the following manner for their ability to inhibit CDK-2 using a standard coupled enzyme assay (Fox et al (1998) Protein Sci 7, 2249).
To an assay stock buffer solution containing 0.1M HEPES 7.5, 10 mM MgCl2, 1 mM DTT, 25 mM NaCl, 2.5 mM phosphoenolpyruvate, […], 30 mg/ml pyruvate kinase, 10 mg/ml lactate dehydrogenase, 100 mM ATP, and 100 μM peptide ([…], American Peptide, Sunnyvale, Calif.) was added a DMSO solution of a compound of the present invention to a final concentration of 30 μM. The resulting mixture was incubated at 30° C. for 10 min.
The reaction was initiated by the addition of 10 μL of CDK-2/Cyclin A stock solution to give a final concentration of 25 nM in the assay. The rates of reaction were obtained by monitoring absorbance at 340 nm over a 5-minute read time at 30° C. using a BioRad Ultramark plate reader (Hercules, Calif.). The Ki values were determined from the rate data as a function of inhibitor concentration.

AKT-3 = AKT-3 (Homo sapiens, UniProt Q9Y243); assay: AKT inhibition assay (coupled enzyme assay); assay type: biochemical; details: 45 nM AKT, 170 μM ATP, 30° C.
Protocol: Compounds were screened for their ability to inhibit AKT using a standard coupled enzyme assay (Fox et al., Protein Sci., (1998) 7, 2249). Assays were carried out in a mixture of 100 mM HEPES 7.5, 10 mM MgCl2, 25 mM NaCl, 1 mM DTT and 1.5% DMSO. Final substrate concentrations in the assay were 170 μM ATP (Sigma Chemicals) and 200 μM peptide (RPRAATF, American Peptide, Sunnyvale, Calif.). Assays were carried out at 30° C. and 45 nM AKT. Final concentrations of the components of the coupled enzyme system were 2.5 mM phosphoenolpyruvate, 300 μM NADH, 30 μg/ML pyruvate kinase and 10 μg/ml lactate dehydrogenase.
An assay stock buffer solution was prepared containing all of the reagents listed above, with the exception of AKT, DTT, and the test compound of interest. 56 μl of the stock solution was placed in a 384 well plate followed by addition of 1 μl of 2 mM DMSO stock containing the test compound (final compound concentration 30 μM). The plate was preincubated for about 10 minutes at 30° C. and the reaction initiated by addition of 10 μl of enzyme (final concentration 45 nM) and 1 mM DTT. Rates of reaction were obtained using a BioRad Ultramark plate reader (Hercules, Calif.) over a 5 minute read time at 30° C.

AKT-3, sequence (Q9Y243 whole entry, species assumed): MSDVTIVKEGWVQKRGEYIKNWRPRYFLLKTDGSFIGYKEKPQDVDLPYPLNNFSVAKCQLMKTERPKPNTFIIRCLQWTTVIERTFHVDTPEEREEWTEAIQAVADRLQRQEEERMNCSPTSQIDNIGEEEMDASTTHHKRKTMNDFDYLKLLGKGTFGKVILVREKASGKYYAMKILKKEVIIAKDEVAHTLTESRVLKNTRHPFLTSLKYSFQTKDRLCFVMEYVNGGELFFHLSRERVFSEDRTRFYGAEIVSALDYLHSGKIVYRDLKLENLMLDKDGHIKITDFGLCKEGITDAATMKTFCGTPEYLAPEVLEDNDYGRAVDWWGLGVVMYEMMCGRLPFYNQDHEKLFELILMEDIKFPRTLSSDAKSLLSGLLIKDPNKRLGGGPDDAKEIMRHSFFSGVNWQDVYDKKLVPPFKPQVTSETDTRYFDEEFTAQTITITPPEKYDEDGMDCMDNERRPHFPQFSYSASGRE

Compound: c1ccc2c(Nc3cc(C4CC4)[nH]n3)nc(Nc3ccc4ncsc4c3)nc2c1 [IIc-32, [2-(Benzothiazol-6-ylamino)-quinazolin-4-yl]-(5-cyclopropyl-2H-pyrazol-3-yl)-amine]
- Ki (CDK-2/Cyclin A): < 1000 nM
- Ki (AKT-3): 1000 to 20000 nM
